Tests used:
Assay in all cases: relative viability (nuclei count vs DMSO), 5 days (fraction); higher = more cells survive
[1] = compound: CCn1c(-c2nonc2N)nc2cnc(Oc3cccc(NC(=O)c4ccc(OCCN5CCOCC5)cc4)c3)cc21 + C[C@@H](Oc1cc(-c2cnn(C3CCNCC3)c2)cnc1N)c1c(Cl)ccc(F)c1Cl [Crizotinib] (partner 1 µM)
In short: (§1)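 Relative viability was taken as the ratio of nuclei in treated wells to nuclei in vehicle wells. Lung cancer cell lines in 1536-well plates received compounds by pin tool one day after seeding, either one drug alone or a fixed anchor-drug dose plus five library-drug doses (not always all listed) in √10 steps. Nuclei were counted on 4× images after 5 days of treatment, and values are medians of duplicate plates.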

Mirin + Luminespib = compound: N=C1NC(=O)/C(=C/c2ccc(O)cc2)S1 [Mirin] + CCNC(=O)c1noc(-c2cc(C(C)C)c(O)cc2O)c1-c1ccc(CN2CCOCC2)cc1 [Luminespib] (partner 0.01 µM)
In short: as §1

Mirin + Crizotinib = compound: N=C1NC(=O)/C(=C/c2ccc(O)cc2)S1 [Mirin] + C[C@@H](Oc1cc(-c2cnn(C3CCNCC3)c2)cnc1N)c1c(Cl)ccc(F)c1Cl [Crizotinib] (partner 1 µM)
In short: as §1

Mirin + Pemetrexed = compound: N=C1NC(=O)/C(=C/c2ccc(O)cc2)S1 [Mirin] + Nc1nc2[nH]cc(CCc3ccc(C(=O)N[C@@H](CCC(=O)O)C(=O)O)cc3)c2c(=O)[nH]1 [Pemetrexed] (partner 0.2 µM)
In short: as §1

Row | Cell Line | relative viability ([1]; first compound 0.04 µM) | relative viability ([1]; first compound 0.1265 µM) | relative viability ([1]; first compound 0.4 µM) | relative viability ([1]; first compound 1.265 µM) | relative viability ([1]; first compound 4 µM) | relative viability (Mirin + Luminespib; first compound 0.25 µM) | relative viability (Mirin + Luminespib; first compound 0.7906 µM) | relative viability (Mirin + Luminespib; first compound 2.5 µM) | relative viability (Mirin + Luminespib; first compound 7.906 µM) | relative viability (Mirin + Luminespib; first compound 25 µM) | relative viability (Mirin + Crizotinib; first compound 0.25 µM) | relative viability (Mirin + Crizotinib; first compound 0.7906 µM) | relative viability (Mirin + Crizotinib; first compound 2.5 µM) | relative viability (Mirin + Crizotinib; first compound 7.906 µM) | relative viability (Mirin + Crizotinib; first compound 25 µM) | relative viability (Mirin + Pemetrexed; first compound 0.25 µM) | relative viability (Mirin + Pemetrexed; first compound 0.7906 µM) | relative viability (Mirin + Pemetrexed; first compound 2.5 µM) | relative viability (Mirin + Pemetrexed; first compound 7.906 µM) | relative viability (Mirin + Pemetrexed; first compound 25 µM)
1 | 201T | 1 | 1.02 | 1.03 | 1.03 | 0.964 | 1.05 | 1.11 | 1.08 | 1.09 | 1.14 | 0.936 | 1.09 | 0.995 | 1.16 | 1.22 | 0.307 | 0.309 | 0.337 | 0.336 | 0.302
2 | A549 | 0.837 | 0.417 | 0.223 | 0.086 | 0.114 |  |  |  |  |  | 0.799 | 0.9 | 0.739 | 0.675 | 0.68 |  |  |  |  | 
3 | A-427 | 0.966 | 1.08 | 0.846 | 0.998 | 0.879 | 0.756 | 1.01 | 0.905 | 0.89 | 0.952 | 0.87 |  | 0.809 | 0.881 | 0.958 | 1 | 0.957 | 1.02 | 0.991 | 0.934
4 | ABC-1 | 1.7 | 0.973 | 1 | 0.608 | 0.396 | 0.746 | 0.879 | 0.73 | 0.534 | 0.341 | 0.993 | 1.09 | 0.866 | 0.918 | 0.664 |  |  |  |  | 
5 | BEN | 0.818 | 0.869 | 0.631 | 0.318 | 0.303 | 0.484 | 0.593 | 0.503 | 0.315 | 0.217 | 0.855 | 0.753 | 1.01 | 0.82 | 0.43 | 0.661 | 0.779 | 0.799 | 0.667 | 0.581
6 | CAL-12T | 0.74 | 0.5 | 0.371 | 0.298 | 0.215 | 0.364 |  | 0.369 | 0.696 | 0.548 | 0.667 | 0.509 | 0.619 | 0.573 | 0.639 | 1.15 | 1.11 | 1.15 | 1.29 | 1.37
7 | COR-L23 | 0.598 | 0.341 | 0.329 | 0.133 | 0.107 | 0.763 | 0.726 | 0.609 | 0.626 | 0.499 | 0.69 | 0.828 | 0.75 | 0.556 | 0.617 | 0.2 | 0.204 | 0.209 | 0.187 | 0.204
8 | COR-L 105 | 0.663 | 0.571 | 0.371 | 0.273 | 0.264 | 0.741 | 0.852 | 0.692 | 0.51 | 0.544 | 0.781 | 0.996 | 0.714 | 0.855 | 0.697 | 1.08 | 1.21 | 1.11 | 1.11 | 1.07
9 | Calu-6 | 0.864 | 0.698 | 0.519 | 0.346 | 0.373 |  |  |  |  |  | 0.745 | 0.833 | 0.767 | 0.781 | 0.781 |  |  |  |  | 
10 | EBC-1 | 0.227 | 0.207 | 0.175 | 0.17 | 0.136 |  |  |  |  |  | 0.21 | 0.221 | 0.166 | 0.194 | 0.21 |  |  |  |  | 
11 | HCC-78 | 0.429 | 0.357 | 0.333 | 0.393 | 0.399 |  |  |  |  |  | 0.362 | 0.381 | 0.371 | 0.386 | 0.41 | 0.952 | 0.882 | 0.882 | 0.903 | 0.871
12 | HCC-366 | 0.738 | 0.537 | 0.575 | 0.0457 | 0.0363 |  |  |  |  |  | 0.464 | 0.62 | 0.44 | 0.443 | 0.413 | 0.178 | 0.251 | 0.177 | 0.167 | 0.218
13 | IA-LM | 1.01 | 0.831 | 0.859 | 0.699 | 0.758 |  |  |  |  |  | 0.813 | 0.916 | 0.744 | 0.849 | 0.981 |  |  |  |  | 
14 | NCI-H522 |  |  |  |  |  | 0.884 | 1.11 | 1.23 | 0.875 | 0.801 |  |  |  |  |  | 0.799 | 1.02 | 0.764 | 1 | 0.522
15 | NCI-H727 | 1.16 | 1.04 | 1.14 | 0.835 | 0.823 | 0.515 | 0.307 | 0.453 | 0.265 | 0.316 | 1.1 | 0.98 | 0.799 | 1.04 | 0.659 |  |  |  |  | 
16 | NCI-H1299 | 0.961 | 0.878 | 0.768 | 0.71 | 0.473 |  |  |  |  |  | 0.991 | 1.05 | 0.947 | 0.997 | 1.08 |  |  |  |  | 
17 | NCI-H1395 |  |  |  |  |  | 0.687 | 0.449 | 0.662 | 0.649 | 0.622 |  |  |  |  |  | 0.898 |  | 0.847 | 0.829 | 0.618
18 | NCI-H1623 |  |  |  |  |  | 0.547 | 0.506 | 0.574 | 0.449 | 0.325 |  |  |  |  |  |  |  |  |  | 
19 | NCI-H1648 |  |  |  |  |  |  |  |  |  |  |  |  |  |  |  | 0.76 |  | 0.853 | 0.678 | 0.55
20 | NCI-H1703 | 0.641 | 0.799 | 0.484 | 0.426 | 0.205 |  |  |  |  |  | 0.603 | 0.519 | 0.757 | 0.523 | 0.493 |  |  |  |  | 
21 | NCI-H1793 |  |  |  |  |  | 0.572 |  | 0.235 | 0.196 | 0.171 |  |  |  |  |  | 0.862 |  | 0.895 | 1.11 | 0.977
22 | NCI-H2342 |  |  |  |  |  | 0.671 | 0.815 | 0.753 | 0.592 | 0.7 |  |  |  |  |  | 0.728 | 0.801 | 0.769 |  | 0.735
23 | SW 900 |  |  |  |  |  | 0.164 | 0.178 | 0.206 | 0.174 | 0.154 |  |  |  |  |  | 0.505 | 0.494 | 0.47 | 0.494 | 0.48

Source: the supplement of paper PMC10307832
